Results taken from DBAASP.
Values after ≈ are worked out from the molar mass of the structure shown.

What was measured:
Assay in all cases: ≥ marks a high value that may be exact or a test limit, other limits are often not marked, values filed in µg/mL are converted to µM
[1] = tested on: Bacillus subtilis
[2] = tested on: Staphylococcus sciuri P254
[3] = tested on: Enterococcus faecalis E1478F
[4] = tested on: Staphylococcus aureus
[5] = tested on: Staphylococcus aureus RN4220
[6] = tested on: Klebsiella pneumoniae 123132
[7] = tested on: Salmonella enterica subsp. enterica serovar Typhi S5
[8] = tested on: Escherichia coli 45849
[9] = tested on: Klebsiella pneumoniae K6 ATCC 700603
[10] = tested on: Salmonella enterica subsp. enterica serovar Typhimurium ATCC 700408
[11] = tested on: Escherichia coli BL21AI
[12] = tested on: Escherichia coli D31
[13] = tested on: Bacillus subtilis IFO 3037
[14] = tested on: Escherichia coli IFO 14237
[15] = tested on: Staphylococcus aureus IFO 12732
[16] = tested on: Escherichia coli ATCC 35218
[17] = tested on: Escherichia coli ATCC 11775
[18] = tested on: Escherichia coli ESBL 4
[19] = tested on: Escherichia coli ESBL
[20] = tested on: Pseudomonas aeruginosa ATCC 27853
[21] = tested on: Escherichia coli ATCC 25922
[22] = tested on: Escherichia coli ATCC 43827
[23] = tested on: Staphylococcus epidermidis ATCC 12228
[24] = tested on: Lacticaseibacillus rhamnosus 1.0911
[25] = tested on: Lacticaseibacillus rhamnosus 1.0385
[26] = tested on: Lactiplantibacillus plantarum 8014
[27] = tested on: Lacticaseibacillus rhamnosus 1.0925
[28] = tested on: Lacticaseibacillus rhamnosus 7469
[29] = tested on: Staphylococcus aureus ATCC 43300
[30] = tested on: Staphylococcus aureus ATCC 29213
[31] = tested on: Escherichia coli UB1005
[32] = tested on: Lacticaseibacillus rhamnosus 1.0386
[33] = tested on: Salmonella enterica subsp. enterica serovar Paratyphi A
[34] = tested on: Klebsiella pneumoniae
[35] = tested on: Staphylococcus haemolyticus
[36] = tested on: Citrobacter freundii
[37] = tested on: Bacillus cereus ATCC 10876
[38] = tested on: Streptococcus agalactiae ATCC 27956
[39] = tested on: Staphylococcus aureus ATCC 6538
[40] = tested on: Enterococcus faecalis ATCC 29212
[41] = tested on: Salmonella enterica subsp. enterica serovar Typhimurium ATCC 14028
[42] = tested on: Streptococcus equi subsp. zooepidemicus ATCC 43079
[43] = tested on: Streptococcus dysgalactiae subsp. dysgalactiae ATCC 27957

CC[C@H](C)[C@H](NC(=O)[C@H](CC(C)C)NC(=O)[C@@H]1CCCN1C(=O)[C@H](CC(C)C)NC(=O)[C@@H](N)Cc1ccccc1)C(=O)NCC(=O)NCC(=O)N[C@@H](CC(C)C)C(=O)N[C@@H](CC(C)C)C(=O)N[C@@H](CO)C(=O)N[C@@H](CCCCN)C(=O)N[C@@H](CC(C)C)C(=O)N[C@@H](CC(C)C)C(N)=O [FLPLIGGLLSKLL]
MIC [1]: 2.83 µM (≈ 3.91 µg/mL)
MIC [2]: ≥ 45.2 µM
MIC [3]: 2.83 µM (≈ 3.91 µg/mL)
MIC [4]: 45.2 µM (≈ 62.5 µg/mL)
MIC [5]: ≥ 45.2 µM

CC[C@H](C)[C@H](NC(=O)[C@H](Cc1ccc(O)cc1)NC(=O)[C@@H](NC(=O)[C@@H]1CCCN1C(=O)[C@H](CCCN=C(N)N)NC(=O)[C@H](CC(N)=O)NC(=O)[C@H](CC(N)=O)NC(=O)CN)C(C)C)C(=O)N1CCC[C@H]1C(=O)N[C@@H](CCC(N)=O)C(=O)N1CCC[C@H]1C(=O)N[C@@H](CCCN=C(N)N)C(=O)N1CCC[C@H]1C(=O)N1CCC[C@H]1C(=O)N[C@@H](Cc1cnc[nH]1)C(=O)N1CCC[C@H]1C(=O)N[C@@H](CCCN=C(N)N)C(=O)N[C@@H](CC(C)C)C(N)=O [GNNRPVYIPQPRPPHPRL]
MIC [6]: 7.59 µM (≈ 16 µg/mL)
MIC [7]: 0.0593 µM (≈ 0.125 µg/mL)
MIC [8]: 0.237 µM (≈ 0.5 µg/mL)
MIC [9]: 7.59 µM (≈ 16 µg/mL)
MIC [10]: 0.0593 µM (≈ 0.125 µg/mL)
MIC [11]: 0.237 µM (≈ 0.5 µg/mL)
MIC [12]: 0.474 µM (≈ 1 µg/mL)

CC[C@H](C)[C@H](N)C(=O)N[C@H](C(=O)NCC(=O)N[C@@H](CC(C)C)C(=O)N[C@H](C(=O)N[C@@H](CO)C(=O)N[C@@H](CCCCN)C(=O)NCC(=O)N[C@H](C(=O)N[C@H]1CSSC[C@@H](C(=O)N[C@@H](CCCCN)C(=O)N[C@@H](CCCCN)C(=O)N[C@H](C(=O)N[C@@H](CC(C)C)C(=O)N[C@@H](CCCCN)C(=O)N[C@@H](CCC(N)=O)C(N)=O)C(C)C)NC(=O)[C@H](C(C)C)NC(=O)[C@H]([C@@H](C)O)NC(=O)[C@H](CCCCN)NC(=O)[C@H](C(C)C)NC(=O)[C@H](CC(C)C)NC(=O)[C@H](C(C)C)NC1=O)[C@@H](C)O)C(C)C)[C@@H](C)CC [IIGLVSKGTCVLVKTVCKKVLKQ]
MIC [13]: ≥ 50 µM
MIC [14]: 25 µM (≈ 61.4 µg/mL)
MIC [15]: 25 µM (≈ 61.4 µg/mL)

CC[C@H](C)[C@H](NC(=O)[C@H](Cc1ccc(O)cc1)NC(=O)[C@H](CCC(N)=O)NC(=O)[C@H](CC(C)C)NC(=O)[C@H](C)NC(=O)[C@H](CCCCN)NC(=O)[C@H](CCCCN)NC(=O)[C@H](CCSC)NC(=O)[C@H](CCCCN)NC(=O)[C@H](CCCCN)NC(=O)[C@@H](N)CCCCN)C(=O)N[C@@H](CCCCN)C(=O)N[C@@H](CC(C)C)C(=O)N[C@@H](CC(C)C)C(=O)N[C@@H](CCCCN)C(=O)N[C@@H](CCC(=O)O)C(N)=O [KKKMKKALQYIKLLKE]
MIC [16]: 12.5 µM (≈ 24.9 µg/mL)
MIC [17]: ≥ 100 µM
MIC [18]: ≥ 100 µM
MIC [19]: ≥ 50 µM
MIC [20]: > 100 µM
MIC [21]: 25 µM (≈ 49.7 µg/mL)
MIC [22]: 6 µM (≈ 11.9 µg/mL)

NC(=O)C[C@H](NC(=O)[C@H](Cc1c[nH]c2ccccc12)NC(=O)[C@H](Cc1c[nH]c2ccccc12)NC(=O)[C@H](Cc1c[nH]c2ccccc12)NC(=O)[C@H](CC(N)=O)NC(=O)[C@H](Cc1c[nH]c2ccccc12)NC(=O)[C@H](CCCN=C(N)N)NC(=O)[C@@H](N)CCCN=C(N)N)C(=O)N[C@@H](Cc1c[nH]c2ccccc12)C(=O)N[C@@H](CCCN=C(N)N)C(=O)N[C@@H](CCCN=C(N)N)C(N)=O [RRWNWWWNWRR]
MIC [23]: > 64 µM
MIC [24]: ≥ 64 µM
MIC [25]: ≥ 64 µM
MIC [26]: ≥ 64 µM
MIC [27]: ≥ 64 µM
MIC [28]: ≥ 64 µM
MIC [29]: > 64 µM
MIC [30]: > 64 µM
MIC [31]: ≥ 64 µM
MIC [20]: > 64 µM
MIC [21]: > 64 µM
MIC [32]: ≥ 64 µM

CC(C)C[C@H](NC(=O)[C@H](CCCCN)NC(=O)[C@H](CC(C)C)NC(=O)[C@H](CCCCN)NC(=O)[C@H](CS)NC(=O)[C@H](CC(C)C)NC(=O)[C@H](Cc1c[nH]c2ccccc12)NC(=O)CNC(=O)[C@H](CCCCN)NC(=O)[C@H](CS)NC(=O)[C@@H]1CCCN1C(=O)[C@H](CCCCN)NC(=O)[C@H](CCCN=C(N)N)NC(=O)[C@H](CCCN=C(N)N)NC(=O)[C@H](CO)NC(=O)[C@@H](N)CO)C(=O)N[C@@H](CCCN=C(N)N)C(=O)O [SSRRKPCKGWLCKLKLR]
MIC [33]: 5.83 µM (≈ 12 µg/mL)
MIC [34]: 2.06 µM (≈ 4.24 µg/mL)
MIC [35]: 1.46 µM (≈ 3 µg/mL)
MIC [36]: 2.91 µM (≈ 6 µg/mL)

CC[C@H](C)[C@H](NC(=O)CNC(=O)[C@H](CCCN=C(N)N)NC(=O)[C@H](CCCCN)NC(=O)[C@H](CO)NC(=O)[C@H](CCCN=C(N)N)NC(=O)[C@H](CCCN=C(N)N)NC(=O)[C@@H](N)C(C)C)C(=O)N[C@@H](CCCCN)C(=O)N[C@H](C(=O)N1CCC[C@H]1C(=O)N[C@@H](CO)C(=O)N[C@@H](Cc1ccccc1)C(=O)N[C@H](C(=O)N[C@@H](CCCCN)C(=O)N[C@@H](CCCCN)C(=O)N[C@H](C(=O)N[C@@H](CC(C)C)C(=O)N[C@@H](CCCCN)C(=O)N[C@@H](CC(=O)O)C(=O)N[C@H](C(=O)N[C@H](C(=O)N[C@@H](CO)C(=O)N[C@@H](CCC(=O)O)C(=O)N[C@@H](CO)C(=O)N[C@H](C(=O)N[C@@H](CO)C(=O)O)[C@@H](C)CC)C(C)C)C(C)C)C(C)C)C(C)C)C(C)C [VRRSKRGIKVPSFVKKVLKDVVSESIS]
MIC [37]: 10.5 µM (≈ 32 µg/mL)
MIC [38]: 13.2 µM (≈ 40.2 µg/mL)
MIC [39]: > 10.5 µM
MIC [40]: > 10.5 µM
MIC [41]: > 10.5 µM
MIC [42]: 13.2 µM (≈ 40.2 µg/mL)
MIC [20]: > 10.5 µM
MIC [21]: 1.64 µM (≈ 5 µg/mL)
MIC [43]: 13.2 µM (≈ 40.2 µg/mL)
